Literature values in patent US20250073140A1, “ANTIPERSPIRANT COMPOSITIONS CONTAINING A SYNERGISTIC COMBINATION OF COPPER, ALUMINUM, TIN, ZINC, ZIRCONIUM, AND SILVER SALTS, AND, METHODS OF USING” (priority 2023, published 2025).

Details: literature report

Compound: [Cl][Cu][Cl] [copper chloride]
- antiperspirant activity: demonstrated to have antiperspirant activity
